Experimental findings from US20240208934A1, “ULK1/2 INHIBITORS AND THEIR USE THEREOF” (LifeArc, priority 2021, published 2024) are described below.

The subject of the experiment is ULK. In words: ULK radiometric assay (33P incorporation onto MBP substrate, glass fiber capture filter). The note with it: ULK Biochemical activity; 20 uM ATP, 0.2 mg/mL MBP; averages of at least two independent experiments. The protocol:
ULK activity was measured using a radiometric assay, to measure the incorporation of radiolabelled ^33P onto MBP substrate using a glass fiber capture filter method. Reaction conditions were 0.2 mg/mL MBP, 20 uM ATP (0.25 μCi/well), 50 mM Tris HCl, pH7.5, 10 mM MgCl2, 0.1% beta-mercaptoethanol, 0.1 mM EGTA, 0.01% BSA. Ten point Half log Compound dilution series were prepared in 100% DMSO and added to the reaction to give final assay concentration of 10% DMSO. Compounds were tested in duplicate and values normalized to 10% DMSO only controls. The data were fitted to a four parameter fit equation and the IC50 values shown are averages of at least two independent experiments.
The IC50 is the concentration that inhibits the measured activity by half. `CN1CCc2cc(Nc3ncc(C4CC4)c(NCCCN4CCCC4=O)n3)ccc2C1` [Example 9, 1-[3-[[5-cyclopropyl-2-[(2-methyl-3,4-dihydro-1H-isoquinolin-6-yl)amino]pyrimidin-4-yl]amino]propyl]pyrrolidin-2-one] had an IC50 of under 0.2 µM.

`COc1cc(C(=O)N2CCOCC2)ccc1Nc1ncc(C(F)(F)F)c(NCCCN2CCCCC2=O)n1` [Example 38, 1-[3-[[2-[2-Methoxy-4-(morpholine-4-carbonyl)anilino]-5-(trifluoromethyl)pyrimidin-4-yl]amino]propyl]piperidin-2-one] displayed an IC50 of at least 1 µM.

With `CN1CCc2cc(Nc3ncc(C4CC4)c(NCCCN4CCCC4)n3)ccc2C1` [Example 15, 5-Cyclopropyl-N2-(2-methyl-1,2,3,4-tetrahydroisoquinolin-6-yl)-N4-(3-(pyrrolidin-1-yl)propyl)pyrimidine-2,4-diamine], the IC50 is at least 1 µM.

The molecule `O=C(CCNc1nc(Nc2ccc3c(c2)CCNC3)ncc1C(F)(F)F)N1CCOCC1` [Example 67, 1-Morpholino-3-[[2-(1,2,3,4-tetrahydroisoquinolin-6-ylamino)-5-(trifluoromethyl)pyrimidin-4-yl]amino]propan-1-one] returned an IC50 of under 0.2 µM.

As to `COc1cc(C(=O)N2CCN(C)CC2)ccc1Nc1ncc(C(F)(F)F)c(NCCCN2CCCCC2=O)n1` [Example 41, 1-[3-[[2-[2-Methoxy-4-(4-methylpiperazine-1-carbonyl)anilino]-5-(trifluoromethyl)pyrimidin-4-yl]amino]propyl]piperidin-2-one], the IC50 was 0.2 to 1 µM.

The molecule `COc1cc2c(cc1Nc1ncc(C(F)(F)F)c(NCCC(=O)N3CCOCC3)n1)CNCC2` [Example 79, 3-[[2-[(6-Methoxy-1,2,3,4-tetrahydroisoquinolin-7-yl)amino]-5-(trifluoromethyl)pyrimidin-4-yl]amino]-1-morpholino-propan-1-one] came in with an IC50 of 0.2 to 1 µM.

For the molecule `O=C1CCCCN1CCCNc1nc(Nc2ccc3c(c2)COCC3)ncc1C(F)(F)F` [Example 25, 1-[3-[[2-(Isochroman-7-ylamino)-5-(trifluoromethyl)pyrimidin-4-yl]amino]propyl]piperidin-2-one], the concentration for half-maximal inhibition (IC50) is under 0.2 µM.

On to `CCOc1nn(C)cc1Nc1ncc(C(F)(F)F)c(NCCCN2CCCCC2=O)n1` [Example 46, 1-[3-[[2-[(3-Ethoxy-1-methyl-pyrazol-4-yl)amino]-5-(trifluoromethyl)pyrimidin-4-yl]amino]propyl]piperidin-2-one], for which the IC50 was in the range of 0.2 to 1 µM.

For the molecule `COc1cc2c(cc1Nc1ncc(C(F)(F)F)c(NCCCn3ccnc3)n1)CNCC2` [Example 70, N4-(3-imidazol-1-ylpropyl)-N2-(6-methoxy-1,2,3,4-tetrahydroisoquinolin-7-yl)-5-(trifluoromethyl)pyrimidine-2,4-diamine], the half-maximal inhibitory concentration (IC50) fell in the range of 0.2 to 1 µM.

Molecule `CC(C)Oc1nn(C)cc1Nc1ncc(C(F)(F)F)c(NCCCN2CCCCC2=O)n1` [Example 49, 1-[3-[[2-[(3-Isopropoxy-1-methyl-pyrazol-4-yl)amino]-5-(trifluoromethyl)pyrimidin-4-yl]amino]propyl]piperidin-2-one] returned an IC50 of at least 1 µM.

`Cc1cc2c(cc1Nc1ncc(C(F)(F)F)c(NCCCN3CCCCC3=O)n1)CNCC2` [Example 23, 6-methyl-7-[[4-[3-(2-oxo-1-piperidyl)propylamino]-5-(trifluoromethyl)pyrimidin-2-yl]amino]-3,4-dihydro-1H-isoquinoline] showed a half-inhibitory concentration (IC50) of under 0.2 µM.

Regarding `FC(F)(F)c1cnc(Nc2ccc(N3CCOCC3)cc2)nc1NCC1CCNC1` (stereo not shown) [Example 87, N2-(4-morpholinophenyl)-N4-(pyrrolidin-3-ylmethyl)-5-(trifluoromethyl)pyrimidine-2,4-diamine], the IC50 lay within 0.2 to 1 µM.

The molecule `COc1cc2c(cc1Nc1ncc(C(F)(F)F)c(NCCCN3CCCCC3=O)n1)CN(C)CC2` [Example 24, 1-[3-[[2-[(6-Methoxy-2-methyl-3,4-dihydro-1H-isoquinolin-7-yl)amino]-5-(trifluoromethyl)pyrimidin-4-yl]amino]propyl]piperidin-2-one] yielded a 50% inhibitory concentration (IC50) of under 0.2 µM.

With `O=C1CCCCN1CCCNc1nc(Nc2cccc3c2OCC3)ncc1C(F)(F)F` [Example 31, 1-[3-[[2-(2,3-Dihydrobenzofuran-7-ylamino)-5-(trifluoromethyl)pyrimidin-4-yl]amino]propyl]piperidin-2-one], the IC50 was at least 1 µM.

For the molecule `COc1cc2c(cc1Nc1ncc(C(F)(F)F)c(NC3CCN(S(C)(=O)=O)CC3)n1)CNCC2` [Example 72, N2-(6-methoxy-1,2,3,4-tetrahydroisoquinolin-7-yl)-N4-(1-methylsulfonyl-4-piperidyl)-5-(trifluoromethyl)pyrimidine-2,4-diamine], the IC50 is at least 1 µM.

For `COc1cc2c(cc1Nc1ncc(C(F)(F)F)c(N3CCC(NC(C)=O)CC3)n1)CNCC2` [Example 71, N-[1-[2-[(6-methoxy-1,2,3,4-tetrahydroisoquinolin-7-yl)amino]-5-(trifluoromethyl)pyrimidin-4-yl]-4-piperidyl]acetamide], the IC50 is at least 1 µM.

`COc1ccc(N2CCNCC2)cc1Nc1ncc(C(F)(F)F)c(NCCCN2CCCCC2=O)n1` [Example 22, 4-[4-methoxy-3-[[4-[3-(2-oxo-1-piperidyl)propylamino]-5-(trifluoromethyl)pyrimidin-2-yl]amino]phenyl]piperazine] gave an IC50 of at least 1 µM.

Consider `O=C1CCCCN1CCCNc1nc(Nc2cc3c(cc2Cl)CNCC3)ncc1C(F)(F)F` [Example 1, 1-(3-(2-(7-Chloro-1,2,3,4-tetrahydroisoquinolin-6-ylamino)-5(trifluoromethyl)pyrimidin-4-ylamino)propyl) piperidin-2-one], for which the IC50 is under 0.2 µM.

`O=C1CCCCN1CCCNc1nc(Nc2cc(OC3CCNCC3)ccc2Cl)ncc1C(F)(F)F` [Example 44, 1-[3-[[2-[2-Chloro-5-(4-piperidyloxy)anilino]-5-(trifluoromethyl)pyrimidin-4-yl]amino]propyl]piperidin-2-one] displayed an IC50 of 0.2 to 1 µM.

Regarding `CN(C)CCCNc1nc(Nc2cccc(OC3CCN(C)CC3)c2)ncc1C1CC1` [Example 84, 5-Cyclopropyl-N4-(3-(dimethylamino)propyl)-N2-(3-(1-methylpiperidin-4-yloxy)phenyl)pyrimidine-2,4-diamine], the IC50 was at least 1 µM.

For `COc1nn(CCN2CCOCC2)cc1Nc1ncc(C(F)(F)F)c(NCCCN2CCCCC2=O)n1` [Example 53, 1-[3-[[2-[[3-Methoxy-1-(2-morpholinoethyl)pyrazol-4-yl]amino]-5-(trifluoromethyl)pyrimidin-4-yl]amino]propyl]piperidin-2-one], the IC50 is at least 1 µM.

As for `COc1cc2c(cc1Nc1ncc(C(F)(F)F)c(NCCCNC(=O)C3CCC3)n1)CNCC2` [Example 82, N-[3-[[2-[(6-methoxy-1,2,3,4-tetrahydroisoquinolin-7-yl)amino]-5-(trifluoromethyl)pyrimidin-4-yl]amino]propyl]cyclobutanecarboxamide], the IC50 is under 0.2 µM.

`CNC(=O)c1ccc(Nc2ncc(C(F)(F)F)c(NCCCN3CCCCC3=O)n2)c(OC)c1` [Example 39, 3-Methoxy-N-methyl-4-[[4-[3-(2-oxo-1-piperidyl)propylamino]-5-(trifluoromethyl)pyrimidin-2-yl]amino]benzamide] showed a concentration for half-maximal inhibition (IC50) of at least 1 µM.

Molecule `COc1ccc(N2CCOCC2)cc1Nc1ncc(C(F)(F)F)c(NCCCN2CCCCC2=O)n1` [Example 32, 1-[3-[[2-(2-Methoxy-5-morpholino-anilino)-5-(trifluoromethyl)pyrimidin-4-yl]amino]propyl]piperidin-2-one] registered an IC50 of at least 1 µM.

Molecule `COc1cc2c(cc1Nc1ncc(C3CC3)c(NCCCNC(=O)C3CCC3)n1)CNCC2` [Example 74, N-[3-[[5-cyclopropyl-2-[(6-methoxy-1,2,3,4-tetrahydroisoquinolin-7-yl)amino]pyrimidin-4-yl]amino]propyl]cyclobutanecarboxamide] gave an IC50 of at least 1 µM.

As for `O=C(NCCCNc1nc(Nc2ccc3c(c2)CCNC3)ncc1C(F)(F)F)C1CCC1` [Example 62, N-(3-((2-((1,2,3,4-tetrahydroisoquinolin-6-yl)amino)-5-(trifluoromethyl)pyrimidin-4-yl)amino)propyl)cyclobutanecarboxamide], the IC50 is under 0.2 µM.

In turn, `CN1CCc2cc(Nc3ncc(C4CC4)c(NC4CC4)n3)ccc2C1` [Example 17, N4,5-dicyclopropyl-N2-(2-methyl-1,2,3,4-tetrahydroisoquinolin-6-yl)pyrimidine-2,4-diamine] had a half-inhibitory concentration (IC50) of under 0.2 µM.

Consider `O=C1CCCCN1CCCNc1nc(Nc2cc(OCCN3CCOCC3)ccc2Cl)ncc1C(F)(F)F` [Example 59, 1-[3-[[2-[2-Chloro-5-(2-morpholinoethoxy)anilino]-5-(trifluoromethyl)pyrimidin-4-yl]amino]propyl]piperidin-2-one], for which the IC50 was in the range of 0.2 to 1 µM.

Turning to `CN1CCc2cc(Nc3ncc(C(F)(F)F)c(NCCCN4CCCCC4=O)n3)ccc2C1` [Example 7, 1-(3-((2-((2-Methyl-1,2,3,4-tetrahydroisoquinolin-6-yl)amino)-5-(trifluoromethyl)pyrimidin-4-yl)amino)propyl)piperidin-2-one], the IC50 was under 0.2 µM.

Turning to `CN(C)S(=O)(=O)c1cc2c(c(Nc3ncc(C(F)(F)F)c(NCCCN4CCCCC4=O)n3)c1)OCC2` [Example 50, N,N-dimethyl-7-[[4-[3-(2-oxo-1-piperidyl)propylamino]-5-(trifluoromethyl)pyrimidin-2-yl]amino]-2,3-dihydrobenzofuran-5-sulfonamide], the IC50 was at least 1 µM.

Regarding `FC(F)(F)c1cnc(Nc2ccc(N3CCOCC3)cc2)nc1NCc1cn[nH]c1` [Example 92, N2-(4-morpholinophenyl)-N4-(1H-pyrazol-4-ylmethyl)-5-(trifluoromethyl)pyrimidine-2,4-diamine], the IC50 was at least 1 µM.
